Experimental data published in patent US11896592B2, “Certain triazolopyridines and triazolopyrazines, compositions thereof and methods of use therefor” (Hutchison Medipharma Limited, priority 2009, dated 2024).

Molecular target: T1, Recombinant human Met (c-Met) (Homo sapiens, UniProt P08581)
T1 construct: purchased Invitrogen PV3143
Experiment: Inhibition of c-Met kinase activity using Transcreener FP assay
Format: biochemical
Conditions: Poly E4Y substrate, 28° C. 45 min, read-out: IC50, inhibition of c-Met kinase activity
Protocol: Compound dilution: dilute test articles to 5 folds of the testing concentration using 20% DMSO.
The mixture is kept on ice until use;
Prepare ATP standard curve stock as following:
3. Enzymatic reaction: in 96-well reaction plate
Add 5 μL of test article or 5 μL of 20% DMSO or 5 μL of 500 mM EDTA;
Add 10 μL of Enzyme/Substrate stock;
Add 10 μL of ATP Diluent to begin the enzyme reaction and mix on plate shaker;
Add 5 μL of 20% DMSO, 10 μL of assay buffer and 10 μL of ATP standard curve stock into standard curve wells;
Gently shake at 28° C. for 45 min.
4. Stop reaction and detect ADP
Prepare Detection Mix: According to the procedures described in the Assay kit, Alexa633 tracer, ADP antibody and stop & detect buffer were added into H2O and mixed thoroughly. Prepare Tracer Only control: According to the procedures described in the Assay kit, ADP Alexa633 tracer and stop & detect buffer were added to H2O and mixed throughly.
Prepare No Tracer control: According to the procedures described in the Assay kit, the stop & detect buffer was diluted with H2O;
Add 25 μL of detection mix, Tracer Only control and No Tracer control into corresponding wells, respectively;
The reaction plate was gently shaken at 28° C. for 1 h;
Florescence polarization (FP) was measured on TECAN F500. Excitation wavelength: 610 nm, Emission wavelength: 670 nm.
Compound well [ADP] represents the ADP concentration of the compound well. Positive control well [ADP] represents the ADP concentration of the 20% DMSO well. Conversion of mP value to ADP concentration is based on the formula which is determined by standard curve.
IC50: calculated using XL-Fit 2.0 software.

T1 sequence (P08581 956-1390 limits assumed): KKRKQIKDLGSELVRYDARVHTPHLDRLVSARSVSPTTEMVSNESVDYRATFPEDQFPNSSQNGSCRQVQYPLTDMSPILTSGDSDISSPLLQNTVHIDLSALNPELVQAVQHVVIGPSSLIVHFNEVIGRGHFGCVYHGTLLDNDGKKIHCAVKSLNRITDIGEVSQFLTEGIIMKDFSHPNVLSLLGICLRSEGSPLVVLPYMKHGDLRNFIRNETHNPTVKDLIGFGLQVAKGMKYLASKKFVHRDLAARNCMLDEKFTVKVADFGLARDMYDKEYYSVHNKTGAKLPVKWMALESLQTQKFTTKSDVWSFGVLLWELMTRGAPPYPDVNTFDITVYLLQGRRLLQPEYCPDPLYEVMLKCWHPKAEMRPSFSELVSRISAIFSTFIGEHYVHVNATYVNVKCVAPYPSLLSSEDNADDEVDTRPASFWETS

Compound | IC50 [nM]
CC(O)Cn1cc(-c2ccc3nnn(Cc4ccc5ncccc5c4)c3n2)cn1 (stereo not drawn) [Compound 100] | 100 to 1000
CN1CCC(n2cc(-c3ccc4nnn(Cc5ccc6ncccc6c5)c4n3)cn2)CC1 [Compound 101] | 100 to 1000
N#Cc1ccc(-c2ccc3nnn(Cc4ccc5ncccc5c4)c3n2)s1 [Compound 102] | 1 to 100
N#Cc1ccc(-c2ccc3nnn(Cc4ccc5ncccc5c4)c3n2)cn1 [Compound 103] | 100 to 1000
OCc1ccc(-c2ccc3nnn(Cc4ccc5ncccc5c4)c3n2)s1 [Compound 104] | 1 to 100
CN(C)Cc1ccc(-c2ccc3nnn(Cc4ccc5ncccc5c4)c3n2)s1 [Compound 105] | 100 to 1000
COCCOc1cc(-c2ccc3nnn(Cc4ccc5ncccc5c4)c3n2)ccn1 [Compound 107] | 100 to 1000
Cn1cnc(-c2ccc3nnn(Cc4ccc5ncccc5c4)c3n2)c1 [Compound 108] | 100 to 1000
OCCn1cnc(-c2ccc3nnn(Cc4ccc5ncccc5c4)c3n2)c1 [Compound 109] | 100 to 1000
COCCNc1cc(-c2ccc3nnn(Cc4ccc5ncccc5c4)c3n2)ccn1 [Compound 110] | 100 to 1000
COCCn1cc(-c2ccc3nnn(Cc4c[nH]c5ncccc45)c3n2)cn1 [Compound 111] | 1 to 100
COc1cccc(-c2ccc3nnn(Cc4c[nH]c5ncccc45)c3n2)c1 [Compound 112] | 1 to 100
CC(c1c[nH]c2ncccc12)n1nnc2ccc(-c3cnn(CCO)c3)nc21 (stereo not drawn) [Compound 113] | 1 to 100
CC(=O)Nc1ccc(-c2ccc3nnn(Cc4c[nH]c5ncccc45)c3n2)cn1 [Compound 115] | 1 to 100
c1cnc2[nH]cc(Cn3nnc4ccc(-c5cnn(C6CCNCC6)c5)nc43)c2c1 [Compound 116] | 100 to 1000
N#CCn1cc(-c2ccc3nnn(Cc4ccc5ncccc5c4)c3n2)cn1 [Compound 117] | 1 to 100
c1cnc2ccc(Cn3nnc4ccc(-c5cnn(C6CCOCC6)c5)nc43)cc2c1 [Compound 118] | 100 to 1000
OC1CCCC1n1cc(-c2ccc3nnn(Cc4ccc5ncccc5c4)c3n2)cn1 (stereo not drawn) [Compound 119] | 100 to 1000
Cn1cc(-c2ccc3nnn(Cc4ccc5ncnn5c4)c3n2)cn1 [Compound 120] | 100 to 1000
FC(F)(F)Cn1cc(-c2ccc3nnn(Cc4ccc5ncnn5c4)c3n2)cn1 [Compound 121] | 100 to 1000
Cn1cc(-c2ccc3nnn(C4(c5ccc6ncccc6c5)CC4)c3n2)cn1 [Compound 122] | 100 to 1000
OCCn1cc(-c2ccc3nnn(C4(c5ccc6ncccc6c5)CC4)c3n2)cn1 [Compound 123] | 100 to 1000
OCCn1cc(-c2ccc3nnn(Cc4ccc5ncnn5c4)c3n2)cn1 [Compound 126] | 100 to 1000
Cn1cc(-c2ccc3nnn(Cc4cc5cccnc5cc4F)c3n2)cn1 [Compound 127] | 1 to 100
OCCn1cc(-c2ccc3nnn(Cc4cc5cccnc5cc4F)c3n2)cn1 [Compound 128] | 1 to 100
Cn1cc(-c2ccc3nnn(Cc4ccc5ncccc5c4F)c3n2)cn1 [Compound 129] | 1 to 100

Compound | IC50 [nM]
OCCn1cc(-c2ccc3nnn(Cc4ccc5ncccc5c4F)c3n2)cn1 [Compound 130] | 1 to 100
Cn1cc(-c2ccc3nnn(Cc4cc5[nH]ncc5s4)c3n2)cn1 [Compound 132] | 1 to 100
Cn1cc(-c2ccc3nnn(Cc4ccc5nccn5c4)c3n2)cn1 [Compound 133] | 1 to 100
OCCn1cc(-c2ccc3nnn(Cc4ccc5nccn5c4)c3n2)cn1 [Compound 134] | 1 to 100
CCn1cc(-c2ccc3nnn(Cc4ccc5nccn5c4)c3n2)cn1 [Compound 135] | 1 to 100
CC(C)n1cc(-c2ccc3nnn(Cc4ccc5nccn5c4)c3n2)cn1 [Compound 136] | 1 to 100
CCn1cc(-c2ccc3nnn(Cc4n[nH]c5ncccc45)c3n2)cn1 [Compound 137] | 1 to 100
OCCn1cc(-c2ccc3nnn(Cc4n[nH]c5ncccc45)c3n2)cn1 [Compound 138] | 100 to 1000
CCCn1cc(-c2ccc3nnn(Cc4ccc5nccn5c4)c3n2)cn1 [Compound 140] | 1 to 100
FC(F)(F)Cn1cc(-c2ccc3nnn(Cc4ccc5nccn5c4)c3n2)cn1 [Compound 141] | 1 to 100
Cn1cc(-c2ccc3nnn(Cc4ccc5ncsc5n4)c3n2)cn1 [Compound 142] | 100 to 1000
c1cn2cc(Cn3nnc4ccc(-c5cnn(C6CCOCC6)c5)nc43)ccc2n1 [Compound 143] | 100 to 1000
CC(C)n1cc(-c2ccc3nnn(Cc4ccc5ncccc5c4)c3n2)cn1 [Compound 144] | 1 to 100
c1cnc2ccc(Cn3nnc4ccc(-c5cn[nH]c5)nc43)cc2c1 [Compound 145] | 1 to 100
CCCn1cc(-c2ccc3nnn(Cc4ccc5ncccc5c4)c3n2)cn1 [Compound 146] | 1 to 100
FC(F)(F)Cn1cc(-c2ccc3nnn(Cc4ccc5ncccc5c4)c3n2)cn1 [Compound 147] | 1 to 100
CS(=O)(=O)n1cc(-c2ccc3nnn(Cc4ccc5ncccc5c4)c3n2)cn1 [Compound 150] | 1 to 100
Cn1ccc(Nc2cnc3nnn(Cc4ccc5ncccc5c4)c3n2)n1 [Compound 152, N-(1-methyl-1H-pyrazol-3-yl)-1-(quinolin-6-ylmethyl)-1H-[1,2,3]triazolo-[4,5-b]pyrazin-6-amine] | 1 to 100
Clc1ccnc(Nc2cnc3nnn(Cc4ccc5ncccc5c4)c3n2)c1 [Compound 153] | 1 to 100
Cc1cccc(N(C)c2cnc3nnn(Cc4ccc5ncccc5c4)c3n2)n1 [Compound 154] | 100 to 1000
Cc1ccc(Nc2cnc3nnn(Cc4ccc5ncccc5c4)c3n2)cn1 [Compound 155] | 1 to 100
COc1cncc(Nc2cnc3nnn(Cc4ccc5ncccc5c4)c3n2)c1 [Compound 156] | 1 to 100
Cc1cccc(Nc2cnc3nnn(Cc4ccc5ncccc5c4)c3n2)n1 [Compound 157] | 1 to 100
Cc1cncc(Nc2cnc3nnn(Cc4ccc5ncccc5c4)c3n2)c1 [Compound 158] | 1 to 100
Cc1cc(Nc2cnc3nnn(Cc4ccc5ncccc5c4)c3n2)on1 [Compound 160] | 1 to 100
c1cnc2ccc(Cn3nnc4ncc(Nc5ccsc5)nc43)cc2c1 [Compound 161] | 1 to 100

Compound | IC50 [nM]
COc1ccc(Nc2cnc3nnn(Cc4ccc5ncccc5c4)c3n2)cn1 [Compound 162] | 1 to 100
Cc1cc(Nc2cnc3nnn(Cc4ccc5ncccc5c4)c3n2)ccn1 [Compound 163] | 1 to 100
Clc1ccc(Nc2cnc3nnn(Cc4ccc5ncccc5c4)c3n2)nc1 [Compound 164] | 1 to 100
c1cnc2ccc(Cn3nnc4ncc(Nc5ccc(N6CCOCC6)cn5)nc43)cc2c1 [Compound 165] | 1 to 100
c1cc(Nc2cnc3nnn(Cc4ccc5ncccc5c4)c3n2)nc(N2CCOCC2)c1 [Compound 166] | 1 to 100
c1ccc(Nc2cnc3nnn(Cc4ccc5ncccc5c4)c3n2)nc1 [Compound 168] | 1 to 100
c1cnc2ccc(Cn3nnc4ncc(Nc5ccncc5)nc43)cc2c1 [Compound 169] | 1 to 100
Clc1cccc(Nc2ccc3nnn(Cc4cc5cnccc5s4)c3n2)c1 [Compound 170] | 100 to 1000
Cc1csc(Nc2cnc3nnn(Cc4ccc5ncccc5c4)c3n2)n1 [Compound 172] | 1 to 100
Cn1cc(Nc2cnc3nnn(Cc4ccc5ncccc5c4)c3n2)cn1 [Compound 173] | 1 to 100
CNC(=O)c1ccnc(Nc2cnc3nnn(Cc4ccc5ncccc5c4)c3n2)c1 [Compound 174] | 100 to 1000
Cc1cnc(Nc2cnc3nnn(Cc4ccc5ncccc5c4)c3n2)s1 [Compound 176] | 1 to 100
CN(c1ccncc1)c1cnc2nnn(Cc3ccc4ncccc4c3)c2n1 [Compound 177] | 1 to 100
COc1cc(Nc2ccc3nnn(Cc4ccc5ncccc5c4)c3n2)ccn1 [Compound 179] | 1 to 100
COc1cncc(Nc2ccc3nnn(Cc4ccc5ncccc5c4)c3n2)c1 [Compound 180] | 1 to 100
Cc1cccc(Nc2ccc3nnn(Cc4ccc5ncccc5c4)c3n2)n1 [Compound 181] | 100 to 1000
Cc1cccc(Nc2ccc3nnn(Cc4ccc5ncccc5c4)c3n2)n1 [Compound 182] | 1 to 100
COc1ccnc(Nc2cnc3nnn(Cc4ccc5ncccc5c4)c3n2)c1 [Compound 183] | 1 to 100
COCCOc1ccnc(Nc2cnc3nnn(Cc4ccc5ncccc5c4)c3n2)c1 [Compound 185] | 1 to 100
COCCOc1cc(Nc2cnc3nnn(Cc4ccc5ncccc5c4)c3n2)ccn1 [Compound 186] | 1 to 100
CNc1ccc(Nc2cnc3nnn(Cc4ccc5ncccc5c4)c3n2)cn1 [Compound 187] | 100 to 1000
Cc1cccnc1Nc1cnc2nnn(Cc3ccc4ncccc4c3)c2n1 [Compound 188] | 1 to 100
Cn1ccc(Nc2ccc3nnn(Cc4ccc5ncccc5c4)c3n2)n1 [Compound 189] | 1 to 100
N#Cc1cc(Nc2cnc3nnn(Cc4ccc5ncccc5c4)c3n2)ccn1 [Compound 190] | 1 to 100
Cc1cc(Nc2cnc3nnn(Cc4ccc5ncccc5c4)c3n2)n[nH]1 [Compound 191] | 1 to 100
CNC(=O)c1cncc(Nc2cnc3nnn(Cc4ccc5ncccc5c4)c3n2)c1 [Compound 192] | 1 to 100
